In patent US9550782B2, “Compounds and methods for treating diabetes” (Medivation Technologies, Inc., priority 2011, dated 2017):
Like-named read-outs stand apart in the source and are kept apart here.

Columns and labels:
[1] = target: T1, rat adrenergic α1B receptor (Rattus norvegicus, UniProt P15823); assay: Radioligand binding, adrenergic α1B ([3H]Prazosin); parameters: species or system Wistar Rat; details: for inhibition at 0.1 µM: read-out: Percentage inhibition of ligand binding, Adrenergic α1B (0.1 μM), compound at 0.1 μM, repeat datapoints each shown
T1 construct: rat adrenergic α1B receptor obtained from Wistar Rat liver; from tissue; host or cells: Wistar rat liver
T1 sequence (P15823 1-515): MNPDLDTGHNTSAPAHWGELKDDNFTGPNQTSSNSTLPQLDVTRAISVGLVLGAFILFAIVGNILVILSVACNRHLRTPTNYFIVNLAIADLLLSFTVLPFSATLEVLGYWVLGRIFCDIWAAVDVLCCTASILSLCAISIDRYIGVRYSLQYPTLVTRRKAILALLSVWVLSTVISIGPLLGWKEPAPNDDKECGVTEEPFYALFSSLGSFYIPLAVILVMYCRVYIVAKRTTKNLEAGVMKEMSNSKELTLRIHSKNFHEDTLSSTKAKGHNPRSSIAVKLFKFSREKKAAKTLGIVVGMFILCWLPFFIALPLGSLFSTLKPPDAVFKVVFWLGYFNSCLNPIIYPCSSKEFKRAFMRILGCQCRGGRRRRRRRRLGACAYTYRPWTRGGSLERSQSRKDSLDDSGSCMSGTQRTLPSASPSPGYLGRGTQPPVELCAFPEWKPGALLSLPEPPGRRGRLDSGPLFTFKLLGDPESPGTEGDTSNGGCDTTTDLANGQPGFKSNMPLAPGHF
Procedure: To evaluate in radioligand binding assays the activity of compounds of the invention, rat adrenergic α1B receptor obtained from Wistar Rat liver (Garcia-S'ainz, J. et al, Biochem. Biophys. Res. Commun. 186:760, 1992; Michel, A. et al, Br. J. Pharmacol. 98:883, 1989) in a modified Tris-HCl buffer (50 mM Tris-HCl buffer, pH 7.4, 0.5 mM EDTA) was used. Compounds of the invention were incubated with 0.25 nM [^3H]Prazosin for 60 min at 25° C. Non-specific binding was estimated in the presence of 10 μM phentolamine. Receptor proteins were filtered and washed, the filters were then counted to determine [^3H]Prazosin specifically bound. […] Compounds of the invention were tested in this biochemical assay and percent inhibition of specific binding was determined. Biochemical assay results are presented as the percent inhibition of specific binding in Table B1.

[2] = target: T2, human recombinant adrenergic α2A receptor (Homo sapiens, UniProt P08913); assay: Radioligand binding, adrenergic α2A ([3H]MK-912); details: [3H]MK-912
T2 construct: expressed in transfected cells; host or cells: insect Sf9 cells
T2 sequence (P08913 1-465): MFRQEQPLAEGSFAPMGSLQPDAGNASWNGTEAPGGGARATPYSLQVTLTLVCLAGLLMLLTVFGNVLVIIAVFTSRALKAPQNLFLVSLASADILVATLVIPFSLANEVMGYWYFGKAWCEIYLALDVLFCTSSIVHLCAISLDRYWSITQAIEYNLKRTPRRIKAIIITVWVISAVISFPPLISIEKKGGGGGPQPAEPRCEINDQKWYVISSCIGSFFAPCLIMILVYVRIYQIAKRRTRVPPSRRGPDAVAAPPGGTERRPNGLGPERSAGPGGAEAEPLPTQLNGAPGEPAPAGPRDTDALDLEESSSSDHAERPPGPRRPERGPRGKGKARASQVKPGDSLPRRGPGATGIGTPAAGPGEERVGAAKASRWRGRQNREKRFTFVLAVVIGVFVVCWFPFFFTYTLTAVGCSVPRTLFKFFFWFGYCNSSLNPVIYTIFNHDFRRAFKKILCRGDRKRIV
Procedure: To evaluate in radioligand binding assays the activity of compounds of the invention, human recombinant adrenergic α2A receptor expressed in insect Sf9 cells (Uhlen, S. et al, J. Pharmacol. Exp. Ther. 271:1558, 1994) in a modified Tris-HCl buffer (50 mM Tris-HCl, pH 7.4, 12.5 mM MgCl2, 2 mM EDTA) was used. Compounds of invention were incubated with 1 nM [^3H]MK-912 for 60 min at 25° C. MK912 is (2S-trans)-1,3,4,5′,6,6′,7,12b-octahydro-1′,3′-dimethyl-spiro[2H-benzofuro[2,3-a]quinolizine-2,4′(1′H)-pyrimidin]-2′(3′H)-one hydrochloride. Non-specific binding was estimated in the presence of 10 μM WB-4101 (2-(2,6-Dimethoxyphenoxyethyl)aminomethyl-1,4-benzodioxane hydrochloride). Receptor proteins were filtered and washed, the filters were then counted to determine [^3H]MK-912 specifically bound. […] Compounds of the invention were tested in this biochemical assay and percent inhibition of specific binding was determined. Biochemical assay results are presented as the percent inhibition of specific binding in Table B1.

[3] = compound at 0.1 μM, repeat datapoints each shown, 0.1 µM

Structure (SMILES): Cc1ccc2c(c1)c1c(n2CC(N=[N+]=[N-])c2ccncc2)CCN(C)C1 (racemic) [V-1, 5-(2-azido-2-(pyridin-4-yl)ethyl)-2,3,4,5-tetrahydro-2,8-dimethyl-1H-pyrido[4,3-b]indole]
- inhibition at 0.1 µM [1]: 15%

Structure (SMILES): CCC(O)(Cn1c2c(c3cc(C)ccc31)CN(C)CC2)c1ccc(F)cc1 (single isomer, unassigned) [34a]
- Percentage inhibition of ligand binding, Adrenergic α2A (0.1 μM) [2, 3]: 29%
- Percentage inhibition of ligand binding, Adrenergic α1B (0.1 μM) [1, 3]: 11%

Structure (SMILES): Cc1ccc2c(c1)c1c(n2CC(O)c2ccncc2)CCN2CCCC12 (single isomer, unassigned) [129a]
- Percentage inhibition of ligand binding, Adrenergic α2A ([2]; 0.1 μM compound, 0.1 µM): 46%
- Percentage inhibition of ligand binding, Adrenergic α1B ([1]; 0.1 μM compound, 0.1 µM): 73%

Structure (SMILES): Cc1ccc2c(c1)c1c(n2CC(O)c2ccncc2)CCN2CCCC12 (single isomer, unassigned) [129b]
- Percentage inhibition of ligand binding, Adrenergic α2A ([2]; 0.1 μM compound, 0.1 µM): 55%
- Percentage inhibition of ligand binding, Adrenergic α1B ([1]; 0.1 μM compound, 0.1 µM): 69%

Structure (SMILES): Cc1ccc2c(c1)c1c(n2CC(O)c2ccncc2)CCN2CCCC12 (single isomer, unassigned) [129c]
- inhibition at 0.03 µM ([2]; 0.03 μM compound, read-out: Percentage inhibition of ligand binding, Adrenergic α2A): 14%
- inhibition at 0.1 µM ([2]; 0.1 μM compound, read-out: Percentage inhibition of ligand binding, Adrenergic α2A): 29%

Structure (SMILES): CN1CCc2c(c3cc(Cl)ccc3n2CC(C)(O)c2ccc(C(F)(F)F)nc2)C1 (single isomer, unassigned) [143a]
- Percentage inhibition of ligand binding, Adrenergic α1B ([1]; 0.1 μM compound, 0.1 µM): 43%

Structure (SMILES): Cc1ccc2c(c1)c1c(n2CC(c2ccncc2)N2CCCC2)CCN(C)C1 (single isomer, unassigned) [152a]
- Percentage inhibition of ligand binding, Adrenergic α2A ([2]; 0.1 μM compound): 17%

Structure (SMILES): Cc1ccc2c(c1)c1c(n2CC(c2ccncc2)N2CCCC2)CCN(C)C1 (single isomer, unassigned) [152b]
- Percentage inhibition of ligand binding, Adrenergic α1B ([1]; 0.1 μM compound): 7%

Structure (SMILES): Cc1ccc2c(c1)c1c(n2CC(N)c2ccncc2)CC2CCC1N2C (single isomer, unassigned) [155a]
- Percentage inhibition of ligand binding, Adrenergic α2A ([2]; 0.1 μM compound, 0.1 µM): −1%

Structure (SMILES): CN1CCc2c(n(CC(O)c3ccc(F)c(F)c3)c3ccc(Cl)cc23)CC1 (single isomer, unassigned) [339b]
- Percentage inhibition of ligand binding, Adrenergic α2A ([2]; compound at 0.1 μM, 0.1 µM): 64%

Structure (SMILES): OCCN1CCc2c(c3cc(Cl)ccc3n2CC(O)c2ccncc2)C1 (single isomer, unassigned) [II-93b]
- Percentage inhibition of ligand binding, Adrenergic α2A ([2]; compound at 0.1 μM, 0.1 µM): 4%

Structure (SMILES): CC(O)(Cn1c2c(c3cc(Cl)ccc31)CN(C1CCC1)CC2)c1cccnc1 (single isomer, unassigned) [II-118a]
- Percentage inhibition of ligand binding, Adrenergic α2A (0.1 μM) [2, 3]: 3%

Structure (SMILES): Cc1ccc2c(c1)c1c(n2CC(C)(O)c2cccnc2)C(O)CN(C)C1 (single isomer, unassigned) [II-151a]
- Percentage inhibition of ligand binding, Adrenergic α1B (0.1 μM) [1, 3]: 11%

Structure (SMILES): CC(O)(Cn1c2c(c3cc(Cl)cnc31)C1CCCN1CC2)c1cccnc1 (single isomer, unassigned) [IV-210a]
- Percentage inhibition of ligand binding, Adrenergic α1B (0.03 μM) ([1]; compound at 0.03 μM, repeat datapoints each shown): 43%

Structure (SMILES): Cc1ccc2c(c1)c1c(n2CC(O)c2ccc(F)cc2)CCN(C)C1 (centres unmarked) [30a]
- Percentage inhibition of ligand binding, Adrenergic α1B (0.1 μM) [1, 3]: 57%

Structure (SMILES): Cc1ccc2c(c1)c1c(n2CC(O)c2ccc(C#N)cc2)CCN(C)C1 (centres unmarked) [142b]
- Percentage inhibition of ligand binding, Adrenergic α2A ([2]; 0.1 μM compound): 63%

Structure (SMILES): Cc1ccc2c(c1)c1c(n2CC(O)c2cn[nH]c2)CCN(C)C1 (centres unmarked) [II-106a]
- Percentage inhibition of ligand binding, Adrenergic α1B ([1]; compound at 0.1 μM): 25%

Structure (SMILES): CN1CCc2c(c3cc(Cl)ccc3n2CC(O)c2cccnc2)C1 (centres unmarked) [compound 7]
- inhibition at 0.1 µM ([2]; read-out: Percentage inhibition of ligand binding, Adrenergic α2A (0.1 μM), compound at 0.1 μM, repeat datapoints each shown): 16%

Structure (SMILES): Cc1cnc2c(c1)c1c(n2CCc2ccc(C)nc2)CCN2CCCC12 (centres unmarked) [compound 74, 10-methyl-7-(2-(6-methylpyridin-3-yl)ethyl)-2,3,5,6,7,1c-hexahydro-1H-pyrido[3′,2′:4,5]pyrrolo[2,3-g]indolizine]
- inhibition at 0.1 µM [1]: 81%
